Experimental data taken from patent US8889696B2, “Substituted pyrido[2,3-d]pyrimidin-7(8H)-ones and therapeutic uses thereof” (Temple University—Of The Commonwealth System Of Higher …, priority 2009, dated 2014).
pIC50: −log10 of the molar value.

How the values were obtained:
[1] = system: K562 (chronic myelogenous leukemia); experiment: Effect on tumor cell lines (Latham assay), K562; assay type: cell-based; conditions: Homo sapiens; K562 cells, examined 96 hours after treatment; read-out: Potencies (IC50) K 562
Procedure: (§1) The plated cells were treated 24 hours later with a compound of the invention dissolved in DMSO at multiple concentrations ranging from 0.01 μM to 100 μM. […] When necessary, the total number of viable cells was determined by trypsinizing the wells and counting the number of viable cells, as determined by trypan blue exclusion, using a hemacytometer.

DU145 (prostate cancer) = experiment: Effect on tumor cell lines (Latham assay), DU145; assay type: cell-based; conditions: Homo sapiens, DU-145; DU145 cells, examined 96 hours after treatment; read-out: Potencies (IC50) DU 145
Procedure: as §1

Row | pIC50 [1] | melting point [°C] | pIC50 (DU145 (prostate cancer)) | Compound
1 | 5.00 to 6.00 | 272 to 273 | 5.00 to 6.00 | O=c1c(S(=O)(=O)c2ccccc2)cc2cnc(Nc3ccc4[nH]ccc4c3)nc2n1C1CCCC1 [Example 55, 2-(1H-indol-5-ylamino)-8-cyclopentyl-6-(phenylsulfonyl)pyrido[2,3-d]pyrimidin-7(8H)-one]
2 | 5.00 to 6.00 | 289 to 292 | 5.00 to 6.00 | COc1ccc(S(=O)(=O)c2cc3cnc(Nc4cccc5[nH]ccc45)nc3n(C)c2=O)cc1 [Example 30, 2-(1H-indol-4-ylamino)-6-(4-methoxyphenylsulfonyl)-8-methylpyrido[2,3-d]pyrimidin-7(8H)-one]
3 | > 6.00 | > 400 | 5.00 to 6.00 | CCn1c(=O)c(S(=O)(=O)c2ccccc2)cc2cnc(Nc3ccc4[nH]ccc4c3)nc21 [Example 54, 2-(1H-indol-5-ylamino)-8-ethyl-6-(phenylsulfonyl)pyrido[2,3-d]pyrimidin-7(8H)-one]
4 | > 6.00 |  | > 6.00 | Cn1c(=O)c(S(=O)(=O)c2ccc(O)cc2)cc2cnc(Nc3ccc4[nH]ccc4c3)nc21 [Example 43, 2-(1H-indol-5-ylamino)-6-(4-hydroxyphenylsulfonyl)-8-methylpyrido[2,3-d]pyrimidin-7(8H)-one]
5 | 5.00 to 6.00 |  | 4.60 to 5.00 | CN1CCN(c2ccc(Nc3ncc4cc(S(=O)(=O)c5ccc(Cl)cc5)c(=O)n(C5CCCC5)c4n3)cc2)CC1 [Example 58, 2-(4-(4-methylpiperazin-1-yl)phenylamine)-6-(4-chlorophenylsulfonyl)-8-cyclopentylpyrido[2,3-d]pyrimidin-7(8H)-one]
6 | 5.00 to 6.00 | 305 to 310 | 5.00 to 6.00 | COC(=O)c1ccc(S(=O)(=O)c2cc3cnc(Nc4ccc5[nH]ccc5c4)nc3n(C)c2=O)cc1 [Example 26, methyl 4-(2-(1H-indol-5-ylamino)-7,8-dihydro-8-methyl-7-oxopyrido[2,3-d]pyrimidin-6-ylsulfonyl)benzoate]
7 | 4.60 to 5.00 | 304 to 306 | 4.60 to 5.00 | Cn1c(=O)c(S(=O)(=O)c2ccc(Cl)cc2)cc2cnc(Nc3cnc4ccccc4c3)nc21 [Example 5, 6-(4-chlorophenylsulfonyl)-8-methyl-2-(quinolin-3-ylamino)pyrido[2,3-d]pyrimidin-7(8H)-one]
8 | 4.60 to 5.00 | 300 to 302 | < 4.00 | O=c1c(S(=O)(=O)c2ccc(Cl)cc2)cc2cnc(Nc3cccc4[nH]ccc34)nc2n1C1CCCCC1 [Example 53, 2-(1H-indol-4-ylamino)-6-(4-chlorophenylsulfonyl)-8-cyclohexylpyrido[2,3-d]pyrimidin-7(8H)-one]
9 | 4.00 to 4.30 | 258 to 259 | 4.30 to 4.60 | O=c1c(S(=O)(=O)c2ccccc2)cc2cnc(N3CCN(c4ccc(C(F)(F)F)cn4)CC3)nc2n1C1CCCC1 [Example 57, 8-cyclopentyl-2-(4-(5-(trifluoromethyl)pyridin-2-yl)piperazin-1-yl)-6-(phenylsulfonyl)pyrido[2,3-d]pyrimidin-7(8H)-one]
10 | > 6.00 | > 350 | > 6.00 | Cn1c(=O)c(S(=O)(=O)c2ccc(F)cc2)cc2cnc(Nc3cccc4[nH]ccc34)nc21 [Example 10, 2-(1H-indol-4-ylamino)-6-(4-fluorophenylsulfonyl)-8-methylpyrido[2,3-d]pyrimidin-7(8H)-one]
11 | 4.30 to 4.60 | > 350 | 4.30 to 4.60 | Cn1c(=O)c(S(=O)(=O)c2ccc(F)cc2)cc2cnc(Nc3ccc4cc[nH]c4c3)nc21 [Example 24, 2-(1H-indol-6-ylamino)-6-(4-fluorophenylsulfonyl)-8-methylpyrido[2,3-d]pyrimidin-7(8H)-one]
12 | > 6.00 | 250 to 255 | 5.00 to 6.00 | Cn1c(=O)c(S(=O)(=O)c2ccc(F)c(Cl)c2)cc2cnc(Nc3ccc4[nH]ccc4c3)nc21 [Example 33, 2-(1H-indol-5-ylamino)-6-(3-chloro-4-fluorophenylsulfonyl)-8-methylpyrido[2,3-d]pyrimidin-7(8H)-one]
13 | > 6.00 | 316 to 320 | > 6.00 | Cn1c(=O)c(S(=O)(=O)c2ccc(Cl)cc2)cc2cnc(Nc3ccc4[nH]ccc4c3)nc21 [Example 6, 2-(1H-indol-5-ylamino)-6-(4-chlorophenylsulfonyl)-8-methylpyrido[2,3-d]pyrimidin-7(8H)-one]
14 | 4.60 to 5.00 | > 300 | 4.60 to 5.00 | Cn1c(=O)c(S(=O)(=O)c2ccc(Cl)cc2)cc2cnc(Nc3ccc(Cl)cc3)nc21 [Example 3, 2-(4-chlorophenylamino)-6-(4-chlorophenylsulfonyl)-8-methylpyrido[2,3-d]pyrimidin-7(8H)-one]
15 | 4.30 to 4.60 | 280 | 4.00 to 4.30 | Cc1ccc(S(=O)(=O)c2cc3cnc(Nc4ccc5c(c4)CC(=O)N5)nc3n(C)c2=O)cc1 [Example 27, 2-(2-oxoindolin-5-ylamino)-8-methyl-6-tosylpyrido[2,3-d]pyrimidin-7(8H)-one]
16 | 4.60 to 5.00 |  | 4.00 to 4.30 | O=c1[nH]c2nc(Nc3ccc4[nH]ccc4c3)ncc2cc1S(=O)(=O)c1ccc(F)c(Cl)c1 [Example 46, 2-(1H-indol-5-ylamino)-6-(3-chloro-4-fluorophenylsulfonyl)pyrido[2,3-d]pyrimidin-7(8H)-one]
17 | 4.00 to 4.30 | 264 to 268 | 4.00 to 4.30 | CC(=O)N1CCN(c2ncc3cc(S(=O)(=O)c4ccc(Cl)cc4)c(=O)n(C)c3n2)CC1 [Example 8, 6-(4-chlorophenylsulfonyl)-2-(4-acetylpiperazin-1-yl)-8-methylpyrido[2,3-d]pyrimidin-7(8H)-one]
18 | 4.60 to 5.00 | 334 to 336 | 4.60 to 5.00 | Cc1ccc(S(=O)(=O)c2cc3cnc(Nc4ccc5cc[nH]c5c4)nc3n(C)c2=O)cc1 [Example 28, 2-(1H-indol-6-ylamino)-8-methyl-6-tosylpyrido[2,3-d]pyrimidin-7(8H)-one]
19 | 4.00 to 4.30 | 184 to 185 | 4.00 to 4.30 | CSc1ncc2cc(S(=O)(=O)c3ccccc3)c(=O)n(C3CCCC3)c2n1 [Example 67, 8-cyclopentyl-2-(methylsulfanyl)-6-(phenylsulfonyl)pyrido[2,3-d]pyrimidin-7(8H)-one]
20 | < 4.00 | 209 to 210 | < 4.00 | O=c1c(S(=O)(=O)c2ccccc2)cc2cnc(NC3CCCC3)nc2n1C1CCCC1 [Example 61, 8-cyclopentyl-2-(cyclopentylamino)-6-(phenylsulfonyl)pyrido[2,3-d]pyrimidin-7(8H)-one]
21 | 4.30 to 4.60 | > 350 | 4.30 to 4.60 | Cn1c(=O)c(S(=O)(=O)c2ccccc2)cc2cnc(Nc3ccc4cc[nH]c4c3)nc21 [Example 25, 2-(1H-indol-6-ylamino)-8-methyl-6-(phenylsulfonyl)pyrido[2,3-d]pyrimidin-7(8H)-one]
22 | 5.00 to 6.00 | 329 to 331 | 4.60 to 5.00 | O=c1c(S(=O)(=O)c2ccc(Cl)cc2)cc2cnc(Nc3ccc(N4CCOCC4)cc3)nc2n1C1CCCCC1 [Example 52, 6-(4-chlorophenylsulfonyl)-2-(4-morpholinophenylamino)-8-cyclohexylpyrido[2,3-d]pyrimidin-7(8H)-one]
23 | 5.00 to 6.00 | 320 to 324 | 5.00 to 6.00 | Cn1c(=O)c(S(=O)(=O)c2ccc(Cl)cc2)cc2cnc(Nc3cccc4[nH]ccc34)nc21 [Example 31, 2-(1H-indol-4-ylamino)-6-(4-chlorophenylsulfonyl)-8-methylpyrido[2,3-d]pyrimidin-7(8H)-one]
24 | 4.00 to 4.30 |  | 4.00 to 4.30 | Cn1c(=O)c(S(=O)(=O)c2ccc(F)cc2F)cc2cnc(Nc3ccc4c(c3)CC(=O)N4)nc21 [Example 41, 6-(2,4-difluorophenylsulfonyl)-2-(2-oxoindolin-5-ylamino)-8-methylpyrido[2,3-d]pyrimidin-7(8H)-one]
25 | 4.60 to 5.00 |  | 4.60 to 5.00 | Cn1c(=O)c(S(=O)(=O)c2ccc(F)c(Cl)c2)cc2cnc(Nc3ccc4c(c3)CC(=O)N4)nc21 [Example 36, 2-(2-oxoindolin-5-ylamino)-6-(3-chloro-4-fluorophenylsulfonyl)-8-methylpyrido[2,3-d]pyrimidin-7(8H)-one]
26 | 5.00 to 6.00 |  | 4.60 to 5.00 | C[S+]([O-])c1ncc2cc(S(=O)(=O)c3ccc(Cl)cc3)c(=O)n(C3CCCC3)c2n1 (centres unmarked) [Example 59, 6-(4-chlorophenylsulfonyl)-8-cyclopentyl-2-(methylsulfinyl)pyrido[2,3-d]pyrimidin-7(8H)-one]
27 | 5.00 to 6.00 |  | > 6.00 | CN1CCN(c2ccc(Nc3ncc4cc(S(=O)(=O)c5ccccc5)c(=O)n(C5CCCC5)c4n3)cc2)CC1 [Example 64, 2-(4-(4-methylpiperazin-1-yl)phenylamino)-8-cyclopentyl-6-(phenylsulfonyl)pyrido[2,3-d]pyrimidin-7(8H)-one]
28 | 4.60 to 5.00 |  | 4.60 to 5.00 | Cn1c(=O)c(S(=O)(=O)c2ccc(F)c(Cl)c2)cc2cnc(Nc3ccc4[nH]ncc4c3)nc21 [Example 38, 2-(1H-indazol-5-ylamino)-6-(3-chloro-4-fluorophenylsulfonyl)-8-methylpyrido[2,3-d]pyrimidin-7(8H)-one]
29 | 4.00 to 4.30 |  | 4.00 to 4.30 | Cn1c(=O)c(S(=O)(=O)c2ccc(F)cc2F)cc2cnc(NCCN3CCOCC3)nc21 [Example 42, 6-(2,4-difluorophenylsulfonyl)-2-(2-morpholinoethylamino)-8-methylpyrido[2,3-d]pyrimidin-7(8H)-one]
30 | 4.60 to 5.00 |  | 4.00 to 4.30 | C[S+]([O-])c1ncc2cc(S(=O)(=O)c3ccccc3)c(=O)n(C3CCCC3)c2n1 (centres unmarked) [Example 66, 8-cyclopentyl-2-(methylsulfinyl)-6-(phenylsulfonyl)pyrido[2,3-d]pyrimidin-7(8H)-one]
